Source: PubChem BioAssay (NCI)
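GI50 is the concentration that inhibits growth by half. TGI: concentration producing complete growth inhibition.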

Legend:
Experiment in all cases: growth of human tumour cells (NCI), 384-well format
786-0 renal = tested on: 786-0 renal
A498 renal = tested on: A498 renal
A549 NSCLC = tested on: A549 NSCLC
ACHN renal = tested on: ACHN renal
BT-549 breast = tested on: BT-549 breast
CAKI-1 renal = tested on: CAKI-1 renal
CCRF-CEM leukemia = tested on: CCRF-CEM leukemia
COLO 205 colon = tested on: COLO 205 colon
DU-145 prostate = tested on: DU-145 prostate
EKVX NSCLC = tested on: EKVX NSCLC
HCC-2998 colon = tested on: HCC-2998 colon
HCT-15 colon = tested on: HCT-15 colon
HL-60(TB) leukemia = tested on: HL-60(TB) leukemia
HOP-62 NSCLC = tested on: HOP-62 NSCLC
HOP-92 NSCLC = tested on: HOP-92 NSCLC
HS 578T breast = tested on: HS 578T breast
HT29 colon = tested on: HT29 colon
IGROV1 ovarian = tested on: IGROV1 ovarian
K-562 leukemia = tested on: K-562 leukemia
KM12 colon = tested on: KM12 colon
LOX IMVI melanoma = tested on: LOX IMVI melanoma
M14 melanoma = tested on: M14 melanoma
MALME-3M melanoma = tested on: MALME-3M melanoma
MCF7 breast = tested on: MCF7 breast
MDA-MB-231 breast = tested on: MDA-MB-231 breast
MDA-MB-435 melanoma = tested on: MDA-MB-435 melanoma
MDA-MB-468 breast = tested on: MDA-MB-468 breast
MOLT-4 leukemia = tested on: MOLT-4 leukemia
NCI-H226 lung = tested on: NCI-H226 lung
NCI-H23 lung = tested on: NCI-H23 lung
NCI-H322M lung = tested on: NCI-H322M lung
NCI-H460 NSCLC = tested on: NCI-H460 NSCLC
NCI-H522 lung = tested on: NCI-H522 lung
NCI/ADR-RES ovarian = tested on: NCI/ADR-RES ovarian
OVCAR-3 ovarian = tested on: OVCAR-3 ovarian
OVCAR-4 ovarian = tested on: OVCAR-4 ovarian
OVCAR-5 ovarian = tested on: OVCAR-5 ovarian
OVCAR-8 ovarian = tested on: OVCAR-8 ovarian
PC-3 prostate = tested on: PC-3 prostate
RPMI-8226 leukemia = tested on: RPMI-8226 leukemia
RXF 393 renal = tested on: RXF 393 renal
SF-268 CNS = tested on: SF-268 CNS
SF-295 CNS = tested on: SF-295 CNS
SF-539 CNS = tested on: SF-539 CNS
SK-MEL-28 melanoma = tested on: SK-MEL-28 melanoma
SK-MEL-5 melanoma = tested on: SK-MEL-5 melanoma
SK-OV-3 ovarian = tested on: SK-OV-3 ovarian
SN12C renal = tested on: SN12C renal
SNB-19 CNS = tested on: SNB-19 CNS
SNB-75 CNS = tested on: SNB-75 CNS
SR leukemia = tested on: SR leukemia
SW-620 colon = tested on: SW-620 colon
T-47D breast = tested on: T-47D breast
TK-10 renal = tested on: TK-10 renal
U251 glioblastoma = tested on: U251 glioblastoma
UACC-257 melanoma = tested on: UACC-257 melanoma
UACC-62 melanoma = tested on: UACC-62 melanoma
UO-31 renal = tested on: UO-31 renal
HCT-116 colon = tested on: HCT-116 colon
SK-MEL-2 melanoma = tested on: SK-MEL-2 melanoma

## Cc1cc(N2CCOCC2)cc2[nH]c(-c3c(NC[C@@H](O)c4cccc(Cl)c4)cc[nH]c3=O)nc12
786-0 renal
  GI50: 1830 nM
  TGI: 4360 nM
A498 renal
  GI50: 2190 nM
  TGI: 4840 nM
A549 NSCLC
  GI50: 1540 nM
  TGI: 5240 nM
ACHN renal
  GI50: 1510 nM
  TGI: 9760 nM
BT-549 breast
  GI50: 1830 nM
  TGI: 4760 nM
CAKI-1 renal
  GI50: 1770 nM
  TGI: 4290 nM
CCRF-CEM leukemia
  GI50: 2110 nM
  TGI: 3940 nM
COLO 205 colon
  GI50: 243 nM
  TGI: 1030 nM
DU-145 prostate
  GI50: 1740 nM
  TGI: 4580 nM
EKVX NSCLC
  GI50: 663 nM
  TGI: 2710 nM
HCC-2998 colon
  GI50: 1170 nM
  TGI: 2530 nM
HCT-15 colon
  GI50: 1960 nM
  TGI: 10100 nM
HL-60(TB) leukemia
  GI50: 85.6 nM
  TGI: 1100 nM
HOP-62 NSCLC
  GI50: 2480 nM
  TGI: 9040 nM
HOP-92 NSCLC
  GI50: 477 nM
  TGI: 1920 nM
HS 578T breast
  GI50: 1500 nM
  TGI: 3070 nM
HT29 colon
  GI50: 203 nM
  TGI: 1640 nM
IGROV1 ovarian
  GI50: 1340 nM
  TGI: 3260 nM
K-562 leukemia
  GI50: 1810 nM
  TGI: 4120 nM
KM12 colon
  GI50: 16.3 nM
  TGI: 121 nM
LOX IMVI melanoma
  GI50: 845 nM
  TGI: 2070 nM
M14 melanoma
  GI50: 735 nM
  TGI: 5440 nM
MALME-3M melanoma
  GI50: 415 nM
  TGI: 3990 nM
MCF7 breast
  GI50: 244 nM
  TGI: 11600 nM
MDA-MB-231 breast
  GI50: 2030 nM
  TGI: 10400 nM
MDA-MB-435 melanoma
  GI50: 691 nM
  TGI: 3560 nM
MDA-MB-468 breast
  GI50: 2230 nM
  TGI: 4730 nM
MOLT-4 leukemia
  GI50: 1150 nM
  TGI: 2500 nM
NCI-H226 lung
  GI50: 197 nM
  TGI: 1760 nM
NCI-H23 lung
  GI50: 234 nM
  TGI: 2640 nM
NCI-H322M lung
  GI50: 1880 nM
  TGI: 11300 nM
NCI-H460 NSCLC
  GI50: 607 nM
  TGI: 2760 nM
NCI-H522 lung
  GI50: 1530 nM
  TGI: 3830 nM
NCI/ADR-RES ovarian
  GI50: 3280 nM
  TGI: 11100 nM
OVCAR-3 ovarian
  GI50: 2880 nM
  TGI: 12500 nM
OVCAR-4 ovarian
  GI50: 1830 nM
  TGI: 6990 nM
OVCAR-5 ovarian
  GI50: 831 nM
  TGI: 4470 nM
OVCAR-8 ovarian
  GI50: 3290 nM
  TGI: 11100 nM
PC-3 prostate
  GI50: 3180 nM
  TGI: 13800 nM
RPMI-8226 leukemia
  GI50: 1560 nM
  TGI: 3130 nM
RXF 393 renal
  GI50: 1440 nM
  TGI: 2910 nM
SF-268 CNS
  GI50: 1760 nM
  TGI: 4770 nM
SF-295 CNS
  GI50: 2440 nM
  TGI: 7730 nM
SF-539 CNS
  GI50: 1520 nM
  TGI: 2920 nM
SK-MEL-28 melanoma
  GI50: 1250 nM
  TGI: 6950 nM
SK-MEL-5 melanoma
  GI50: 1320 nM
  TGI: 4140 nM
SK-OV-3 ovarian
  GI50: 1630 nM
  TGI: 5780 nM
SN12C renal
  GI50: 715 nM
  TGI: 2420 nM
SNB-19 CNS
  GI50: 2790 nM
  TGI: 8230 nM
SNB-75 CNS
  GI50: 1840 nM
  TGI: 3590 nM
SR leukemia
  GI50: 1150 nM
  TGI: 2390 nM
SW-620 colon
  GI50: 1760 nM
  TGI: 11300 nM
T-47D breast
  GI50: 3840 nM
  TGI: 16200 nM
TK-10 renal
  GI50: 1760 nM
  TGI: 4730 nM
U251 glioblastoma
  GI50: 3300 nM
  TGI: 12100 nM
UACC-257 melanoma
  GI50: 2170 nM
  TGI: 9080 nM
UACC-62 melanoma
  GI50: 2510 nM
  TGI: 11700 nM
UO-31 renal
  GI50: 1780 nM
  TGI: 5010 nM

## COc1cc(Nc2ncc(F)c(Nc3ccc4c(n3)N(COP(=O)(O)O)C(=O)C(C)(C)O4)n2)cc(OC)c1OC
786-0 renal
  GI50: 1320 nM
  TGI: 2990 nM
A498 renal
  GI50: 1740 nM
  TGI: 3350 nM
A549 NSCLC
  GI50: 1520 nM
  TGI: 3120 nM
ACHN renal
  GI50: 1250 nM
  TGI: 5820 nM
BT-549 breast
  GI50: 1300 nM
  TGI: 2740 nM
CAKI-1 renal
  GI50: 974 nM
  TGI: 2160 nM
COLO 205 colon
  GI50: 1640 nM
  TGI: 3670 nM
DU-145 prostate
  GI50: 1890 nM
  TGI: 7540 nM
EKVX NSCLC
  GI50: 1090 nM
  TGI: 2630 nM
HCT-116 colon
  GI50: 1930 nM
  TGI: 6520 nM
HCT-15 colon
  GI50: 3060 nM
  TGI: > 100000 nM
HL-60(TB) leukemia
  GI50: 1570 nM
  TGI: 3030 nM
HOP-62 NSCLC
  GI50: 1450 nM
  TGI: 3710 nM
HOP-92 NSCLC
  GI50: 1260 nM
  TGI: 2600 nM
HS 578T breast
  GI50: 1260 nM
  TGI: 2550 nM
HT29 colon
  GI50: 1410 nM
  TGI: 4490 nM
IGROV1 ovarian
  GI50: 427 nM
  TGI: 1600 nM
K-562 leukemia
  GI50: 2630 nM
  TGI: 10800 nM
KM12 colon
  GI50: 2900 nM
  TGI: 10900 nM
M14 melanoma
  GI50: 2410 nM
  TGI: 38800 nM
MALME-3M melanoma
  GI50: 2300 nM
  TGI: > 100000 nM
MCF7 breast
  GI50: 1910 nM
  TGI: > 100000 nM
MDA-MB-231 breast
  GI50: 1980 nM
  TGI: 5780 nM
MDA-MB-435 melanoma
  GI50: 2350 nM
  TGI: 25400 nM
MDA-MB-468 breast
  GI50: 1700 nM
  TGI: 3340 nM
MOLT-4 leukemia
  GI50: 1380 nM
  TGI: 3030 nM
NCI-H226 lung
  GI50: 640 nM
  TGI: 2490 nM
NCI-H23 lung
  GI50: 1380 nM
  TGI: 4400 nM
NCI-H322M lung
  GI50: 1750 nM
  TGI: 4850 nM
NCI-H460 NSCLC
  GI50: 534 nM
  TGI: 11300 nM
NCI-H522 lung
  GI50: 679 nM
  TGI: 2200 nM
OVCAR-3 ovarian
  GI50: 1970 nM
  TGI: 11100 nM
OVCAR-4 ovarian
  GI50: 1450 nM
  TGI: 4120 nM
OVCAR-5 ovarian
  GI50: 1940 nM
  TGI: 42800 nM
OVCAR-8 ovarian
  GI50: 1610 nM
  TGI: 3010 nM
PC-3 prostate
  GI50: 2730 nM
  TGI: 12300 nM
RXF 393 renal
  GI50: 241 nM
  TGI: 887 nM
SF-268 CNS
  GI50: 1450 nM
  TGI: 2810 nM
SF-295 CNS
  GI50: 2500 nM
  TGI: 88300 nM
SF-539 CNS
  GI50: 618 nM
  TGI: 1870 nM
SK-MEL-2 melanoma
  GI50: 2930 nM
  TGI: 16500 nM
SK-MEL-28 melanoma
  GI50: 2340 nM
  TGI: > 100000 nM
SK-MEL-5 melanoma
  GI50: 2510 nM
  TGI: 6660 nM
SK-OV-3 ovarian
  GI50: 871 nM
  TGI: 2230 nM
SN12C renal
  GI50: 724 nM
  TGI: 7140 nM
SNB-19 CNS
  GI50: 1920 nM
  TGI: 4970 nM
SNB-75 CNS
  GI50: 505 nM
  TGI: 1680 nM
SR leukemia
  GI50: 1510 nM
  TGI: 2950 nM
SW-620 colon
  GI50: 1880 nM
  TGI: 6610 nM
T-47D breast
  GI50: 2370 nM
  TGI: 9310 nM
TK-10 renal
  GI50: 1380 nM
  TGI: 3130 nM
U251 glioblastoma
  GI50: 1700 nM
  TGI: 6870 nM
UACC-257 melanoma
  GI50: 4060 nM
  TGI: > 100000 nM
UACC-62 melanoma
  GI50: 1220 nM
  TGI: 3450 nM
UO-31 renal
  GI50: 654 nM
  TGI: 2830 nM
